According to ChEMBL document CHEMBL1641485, “Chromone 3-phenylcarboxamides as potent and selective MAO-B inhibitors” (Bioorg Med Chem Lett, 2011):

Key:
[1] = target: T1, Amine oxidase [flavin-containing] A (Homo sapiens, UniProt P21397); experiment: Inhibition of human recombinant MAOA expressed in baculovirus-infected BTI insect cells at 100 uM after 15 mins by fluorimetric assay; conditions: 0.25 h
T1 sequence (P21397 whole entry): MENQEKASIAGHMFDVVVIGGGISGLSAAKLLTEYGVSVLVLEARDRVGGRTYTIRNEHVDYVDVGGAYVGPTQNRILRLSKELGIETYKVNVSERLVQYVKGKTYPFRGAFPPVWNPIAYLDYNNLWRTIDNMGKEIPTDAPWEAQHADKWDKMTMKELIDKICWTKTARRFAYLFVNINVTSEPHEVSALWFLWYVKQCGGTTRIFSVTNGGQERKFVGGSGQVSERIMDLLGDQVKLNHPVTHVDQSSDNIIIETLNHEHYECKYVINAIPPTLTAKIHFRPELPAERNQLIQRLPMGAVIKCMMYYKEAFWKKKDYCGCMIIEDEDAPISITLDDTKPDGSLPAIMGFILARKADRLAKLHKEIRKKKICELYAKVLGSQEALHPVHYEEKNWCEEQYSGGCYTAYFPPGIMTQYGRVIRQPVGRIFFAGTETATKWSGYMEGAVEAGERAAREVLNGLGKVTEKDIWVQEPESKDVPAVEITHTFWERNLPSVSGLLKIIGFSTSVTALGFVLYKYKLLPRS

[2] = target: T2, Amine oxidase [flavin-containing] B (Homo sapiens, UniProt P27338); experiment: Inhibition of human recombinant MAOB expressed in baculovirus-infected BTI insect cells at 100 uM after 15 mins by fluorimetric assay; conditions: 0.25 h
T2 sequence (P27338 whole entry): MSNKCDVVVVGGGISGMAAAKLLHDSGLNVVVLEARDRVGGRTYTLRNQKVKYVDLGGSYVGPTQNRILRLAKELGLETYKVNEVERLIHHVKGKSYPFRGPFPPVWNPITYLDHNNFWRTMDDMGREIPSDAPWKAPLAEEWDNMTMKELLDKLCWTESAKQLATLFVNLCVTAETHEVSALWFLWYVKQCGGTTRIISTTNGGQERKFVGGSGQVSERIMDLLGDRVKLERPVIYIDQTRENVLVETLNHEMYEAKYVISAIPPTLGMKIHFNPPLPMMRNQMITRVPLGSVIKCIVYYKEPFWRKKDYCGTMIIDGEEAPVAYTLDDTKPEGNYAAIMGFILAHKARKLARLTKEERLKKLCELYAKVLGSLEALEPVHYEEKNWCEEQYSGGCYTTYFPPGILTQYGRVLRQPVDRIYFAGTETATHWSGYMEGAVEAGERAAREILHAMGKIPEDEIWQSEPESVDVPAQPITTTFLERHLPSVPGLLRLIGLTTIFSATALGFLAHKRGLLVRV

[3] = target: T2, Amine oxidase [flavin-containing] B; experiment: Inhibition of human recombinant MAOB expressed in baculovirus-infected BTI insect cells after 15 mins by fluorimetric assay; assay type: cell-based
Homo sapiens = species on record: Homo sapiens; experiment: Selectivity ratio of IC50 for human recombinant MAOA to IC50 for human recombinant MAOB

SMILES | inhibition (INH) [1] | inhibition (INH) [2] | IC50 [3] | Ratio IC50 (Homo sapiens)
Cc1ccc(NC(=O)c2cc(=O)c3ccccc3o2)cc1 | Not Active | Not Active |  | 
O=C(Nc1ccc(I)cc1)c1cc(=O)c2ccccc2o1 | Not Active | Not Active |  | 
COc1ccc(NC(=O)c2coc3ccccc3c2=O)cc1 | Not Active |  | 450 nM | > 222
CSc1ccc(NC(=O)c2cc(=O)c3ccccc3o2)cc1 | Not Active | Not Active |  | 
CSc1ccc(NC(=O)c2coc3ccccc3c2=O)cc1 | Not Active |  | 120 nM | > 833
O=C(Nc1ccccc1)c1cc(=O)c2ccccc2o1 | Not Active | Not Active |  | 
COc1ccc(NC(=O)c2cc(=O)c3ccccc3o2)cc1 | Not Active | Not Active |  | 
